How the values were obtained:
Type in all cases: in vivo
Diabrotica balteata = experiment: Example B2: activity against Diabrotica balteata (corn root worm), maize sprouts; conditions: 96 h, L2 larvae, 4 days after infestation, read-out: effect in at least one of the two categories (mortality or growth inhibition)
Procedure, shortened: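 At 200 ppm, test solutions diluted in water from 10′000 ppm DMSO stocks were spray-applied to maize sprouts set on agar. Once dry, each well received 6–10 second-instar larvae. Four days later, mortality and growth inhibition were compared with untreated controls.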

Plutella xylostella = experiment: Example B5: activity against Plutella xylostella (diamond back moth), artificial diet, eggs; conditions: 192 h, 8 days after infestation, read-out: effect in at least one of the two categories (mortality or growth inhibition)
Procedure, shortened: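 Scoring at 8 days post-infestation compared mortality and growth inhibition with untreated controls, on diet treated at 200 ppm with water-diluted DMSO stock solutions. Diamondback moth eggs were placed on the dried diet in 24-well plates.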

Myzus persicae [1] = experiment: Example B7b: Myzus persicae feeding/contact activity, eggplant leaf discs; conditions: foliar, 144 h, mixed ages, 6 days after infestation
Experimental: Eggplant leaf discs were placed onto agar in a 24-well microtiter plate and sprayed with aqueous test solutions prepared from 10′000 ppm DMSO stock solutions. After drying, the leaf discs were infested with an aphid population of mixed ages. The samples were assessed for mortality 6 days after infestation.

Chilo suppressalis = experiment: Example B1: activity against Chilo suppressalis (striped rice stemborer), artificial diet; conditions: 144 h, 200 ppm, L2 larvae, 6 days after infestation, read-out: control (at least one of mortality, anti-feedant effect, growth inhibition)
Procedure, shortened: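 Diet-incorporation surface assay: aqueous dilutions of 10'000 ppm DMSO stock applied to artificial diet, dried; 6-8 L2 larvae/well; read day 6 post-infestation for mortality, antifeedant effect, growth inhibition vs untreated. Active if any category above untreated.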

Spodoptera littoralis = experiment: Example B6: activity against Spodoptera littoralis (Egyptian cotton leaf worm), cotton leaf discs; conditions: foliar, 72 h, 200 ppm, L1 larvae, 3 days after infestation, read-out: control (at least one of mortality, anti-feedant effect, growth inhibition)
Procedure, shortened: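 Read-out: mortality, feeding deterrence and growth inhibition, assessed 3 days after infestation relative to untreated samples. Sprayed, dried cotton leaf discs on agar each received five first-instar (L1) larvae; sprays were aqueous solutions prepared from 10′000 ppm DMSO stocks.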

Euschistus heros = experiment: Example B3: activity against Euschistus heros (neotropical brown stink bug), soybean leaves; conditions: 120 h, N2 nymphs, 5 days after infestation, read-out: effect in at least one of the two categories (mortality or growth inhibition)
Experimental: Soybean leaves on agar in 24-well microtiter plates were sprayed with aqueous test solutions prepared from 10′000 ppm DMSO stock solutions. After drying the leaves were infested with N2 nymphs. The samples were assessed for mortality and growth inhibition in comparison to untreated samples 5 days after infestation. The following compounds gave an effect of at least 80% in at least one of the two categories (mortality or growth inhibition) at an application rate of 200 ppm: […]

Myzus persicae [2] = experiment: Example B4: activity against Myzus persicae (green peach aphid), intrinsic activity; conditions: 120 h, test rate 12 ppm, 5 days after infestation
Procedure, shortened: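 Mortality was read 5 days after infestation. Aphids on pea seedlings fed through a stretched Parafilm membrane on inverted 24-well plates containing sucrose solution mixed with test compound, which was diluted from 10′000 ppm DMSO stock.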

Pseudoplusia includens = experiment: Example B9: Pseudoplusia includens (soybean looper), larvicide, feeding/contact, soybean plants; conditions: Chrysodeixis includens, 120 h; 50 ppm; L2 larvae; 5 days after infestation; read-out: effect in at least one of the two categories (mortality or growth inhibition)
Experimental: Soybean plants were treated in a spray chamber, cut off and placed into petri dishes containing wet filter paper. 1d after application leaves were infested with 5 L2 larvae and covered with a fabric filter and plastic lids. 5 days after infestation the samples were assessed for mortality and growth inhibition. The following compounds gave an effect of at least 80% in at least one of the two categories (mortality or growth inhibition) at an application rate of 50 ppm: […]

C[C@H](Nc1ncnc2c(Br)cc(Br)cc12)c1ncnn1-c1cc(C#N)ncn1 [Compound P41, 6-[5-[(1S)-1-[(6,8-dibromoquinazolin-4-yl)amino]ethyl]-1,2,4-triazol-1-yl]pyrimidine-4-carbonitrile]
≥ 80%: percent effect (mortality or growth inhibition) at 200 ppm (Diabrotica balteata) | percent effect (mortality or growth inhibition) at 200 ppm (Plutella xylostella) | mortality at 200 ppm (Myzus persicae [1]) | percent control (mortality, anti-feedant effect or growth inhibition) at 200 ppm (Chilo suppressalis) | percent control (mortality, anti-feedant effect or growth inhibition) at 200 ppm (Spodoptera littoralis)

C[C@@H](c1ncnn1-c1cc(C(N)=O)ncn1)N(C)c1ncnc2c(I)cc(Cl)cc12 [Compound P47, 6-[5-[(1S)-1-[(6-chloro-8-iodo-quinazolin-4-yl)-methyl-amino]ethyl]-1,2,4-triazol-1-yl]pyrimidine-4-carboxamide]
≥ 80%: percent effect (mortality or growth inhibition) at 200 ppm (Diabrotica balteata) | percent effect (mortality or growth inhibition) at 200 ppm (Plutella xylostella) | percent effect (mortality or growth inhibition) at 200 ppm (Euschistus heros) | mortality at 12 ppm (Myzus persicae [2]) | percent effect (mortality or growth inhibition) at 50 ppm (Pseudoplusia includens) | percent control (mortality, anti-feedant effect or growth inhibition) at 200 ppm (Chilo suppressalis) | percent control (mortality, anti-feedant effect or growth inhibition) at 200 ppm (Spodoptera littoralis)

C[C@H](Nc1ncnc2c(Cl)cc(C(F)(F)F)cc12)c1ncnn1-c1ncc(C(N)=O)s1 [Compound P35, 2-[5-[(1S)-1-[[8-chloro-6-(trifluoromethyl)quinazolin-4-yl]amino]ethyl]-1,2,4-triazol-1-yl]thiazole-5-carboxamide]
≥ 80%: percent effect (mortality or growth inhibition) at 200 ppm (Diabrotica balteata) | percent effect (mortality or growth inhibition) at 200 ppm (Plutella xylostella) | percent effect (mortality or growth inhibition) at 200 ppm (Euschistus heros) | mortality at 12 ppm (Myzus persicae [2]) | percent control (mortality, anti-feedant effect or growth inhibition) at 200 ppm (Chilo suppressalis) | percent control (mortality, anti-feedant effect or growth inhibition) at 200 ppm (Spodoptera littoralis)

CNC(=O)c1cnc(-n2ncnc2[C@H](C)Nc2ncnc3c(C(F)(F)F)cc(Cl)cc23)s1 [Compound P7, 2-[5-[(1S)-1-[[6-chloro-8-(trifluoromethyl)quinazolin-4-yl]amino]ethyl]-1,2,4-triazol-1-yl]-N-methyl-thiazole-5-carboxamide]
≥ 80%: percent effect (mortality or growth inhibition) at 200 ppm (Diabrotica balteata) | percent effect (mortality or growth inhibition) at 200 ppm (Plutella xylostella) | percent effect (mortality or growth inhibition) at 200 ppm (Euschistus heros) | percent control (mortality, anti-feedant effect or growth inhibition) at 200 ppm (Chilo suppressalis) | percent control (mortality, anti-feedant effect or growth inhibition) at 200 ppm (Spodoptera littoralis)

CNC(=O)c1cc(-n2ncnc2[C@H](C)N(C)c2ncnc3c(Cl)cc(C(F)(F)F)cc23)ncn1 [Compound P15, 6-[5-[(1S)-1-[[8-chloro-6-(trifluoromethyl)quinazolin-4-yl]-methyl-amino]ethyl]-1,2,4-triazol-1-yl]-N-methyl-pyrimidine-4-carboxamide]
≥ 80%: percent effect (mortality or growth inhibition) at 200 ppm (Diabrotica balteata) | percent effect (mortality or growth inhibition) at 200 ppm (Plutella xylostella) | percent effect (mortality or growth inhibition) at 200 ppm (Euschistus heros) | mortality at 12 ppm (Myzus persicae [2]) | percent effect (mortality or growth inhibition) at 50 ppm (Pseudoplusia includens) | percent control (mortality, anti-feedant effect or growth inhibition) at 200 ppm (Chilo suppressalis) | percent control (mortality, anti-feedant effect or growth inhibition) at 200 ppm (Spodoptera littoralis)

C[C@@H](c1ncnn1-c1cc(C(N)=O)ncn1)N(C)c1ncnc2c(Cl)cc(C(F)(F)F)cc12 [Compound P51, 6-[5-[(1S)-1-[[8-chloro-6-(trifluoromethyl)quinazolin-4-yl]-methyl-amino]ethyl]-1,2,4-triazol-1-yl]pyrimidine-4-carboxamide]
≥ 80%: percent effect (mortality or growth inhibition) at 200 ppm (Diabrotica balteata) | percent effect (mortality or growth inhibition) at 200 ppm (Plutella xylostella) | percent effect (mortality or growth inhibition) at 200 ppm (Euschistus heros) | mortality at 12 ppm (Myzus persicae [2]) | percent control (mortality, anti-feedant effect or growth inhibition) at 200 ppm (Chilo suppressalis) | percent control (mortality, anti-feedant effect or growth inhibition) at 200 ppm (Spodoptera littoralis)

CNC(=O)c1cc(-n2ncnc2[C@H](C)Nc2ncnc3c(S(=O)(=O)C(F)(F)F)cc(Cl)cc23)ncn1 [Compound P60, 6-[5-[(1S)-1-[[6-chloro-8-(trifluoromethylsulfonyl)quinazolin-4-yl]amino]ethyl]-1,2,4-triazol-1-yl]-N-methyl-pyrimidine-4-carboxamide]
≥ 80%: percent effect (mortality or growth inhibition) at 200 ppm (Diabrotica balteata) | percent effect (mortality or growth inhibition) at 200 ppm (Plutella xylostella) | percent effect (mortality or growth inhibition) at 200 ppm (Euschistus heros) | mortality at 12 ppm (Myzus persicae [2]) | percent effect (mortality or growth inhibition) at 50 ppm (Pseudoplusia includens) | percent control (mortality, anti-feedant effect or growth inhibition) at 200 ppm (Chilo suppressalis) | percent control (mortality, anti-feedant effect or growth inhibition) at 200 ppm (Spodoptera littoralis)

C[C@H](Nc1ncnc2c(C(F)(F)F)cc(Cl)cc12)c1ncnn1-c1ncc(C(N)=O)cn1 [Compound P68, 2-[5-[(1S)-1-[[6-chloro-8-(trifluoromethyl)quinazolin-4-yl]amino]ethyl]-1,2,4-triazol-1-yl]pyrimidine-5-carboxamide]
≥ 80%: percent effect (mortality or growth inhibition) at 200 ppm (Euschistus heros)

C[C@H](Nc1ncnc2c(Br)cc(Br)cc12)c1ncnn1-c1cnc(C(N)=O)cn1 [Compound P74, 5-[5-[(1S)-1-[(6,8-dibromoquinazolin-4-yl)amino]ethyl]-1,2,4-triazol-1-yl]pyrazine-2-carboxamide]
≥ 80%: percent effect (mortality or growth inhibition) at 200 ppm (Plutella xylostella) | percent effect (mortality or growth inhibition) at 200 ppm (Euschistus heros) | percent control (mortality, anti-feedant effect or growth inhibition) at 200 ppm (Spodoptera littoralis)

C[C@H](Nc1ncnc2c(C(F)(F)F)cc(Cl)cc12)c1ncnn1-c1ncc(C(N)=O)s1 [Compound P8]
≥ 80%: percent effect (mortality or growth inhibition) at 200 ppm (Diabrotica balteata) | percent effect (mortality or growth inhibition) at 200 ppm (Plutella xylostella) | mortality at 12 ppm (Myzus persicae [2]) | percent effect (mortality or growth inhibition) at 50 ppm (Pseudoplusia includens) | percent control (mortality, anti-feedant effect or growth inhibition) at 200 ppm (Chilo suppressalis) | percent control (mortality, anti-feedant effect or growth inhibition) at 200 ppm (Spodoptera littoralis)

C[C@@H](c1ncnn1-c1cc(C(=O)N(C)C)ncn1)N(C)c1ncnc2c(C(F)(F)F)cc(Cl)cc12 [Compound P82, 6-[5-[(1S)-1-[[6-chloro-8-(trifluoromethyl)quinazolin-4-yl]-methyl-amino]ethyl]-1,2,4-triazol-1-yl]-N,N-dimethyl-pyrimidine-4-carboxamide]
≥ 80%: percent effect (mortality or growth inhibition) at 200 ppm (Diabrotica balteata) | percent effect (mortality or growth inhibition) at 200 ppm (Plutella xylostella) | mortality at 12 ppm (Myzus persicae [2]) | mortality at 200 ppm (Myzus persicae [1]) | percent control (mortality, anti-feedant effect or growth inhibition) at 200 ppm (Spodoptera littoralis)

C[C@H](Nc1ncnc2c(I)cc(Cl)cc12)c1ncnn1-c1cnc(C(N)=O)cn1 [Compound P75, 5-[5-[(1S)-1-[(6-chloro-8-iodo-quinazolin-4-yl)amino]ethyl]-1,2,4-triazol-1-yl]pyrazine-2-carboxamide]
≥ 80%: percent effect (mortality or growth inhibition) at 200 ppm (Diabrotica balteata) | percent effect (mortality or growth inhibition) at 200 ppm (Plutella xylostella) | percent effect (mortality or growth inhibition) at 200 ppm (Euschistus heros) | mortality at 12 ppm (Myzus persicae [2]) | percent control (mortality, anti-feedant effect or growth inhibition) at 200 ppm (Chilo suppressalis) | percent control (mortality, anti-feedant effect or growth inhibition) at 200 ppm (Spodoptera littoralis)

C[C@@H](c1ncnn1-c1cc(C(N)=O)ncn1)N(C)c1ncnc2c(Br)cc(Br)cc12 [Compound P48, 6-[5-[(1S)-1-[(6,8-dibromoquinazolin-4-yl)-methyl-amino]ethyl]-1,2,4-triazol-1-yl]pyrimidine-4-carboxamide]
≥ 80%: percent effect (mortality or growth inhibition) at 200 ppm (Diabrotica balteata) | percent effect (mortality or growth inhibition) at 200 ppm (Plutella xylostella) | percent effect (mortality or growth inhibition) at 200 ppm (Euschistus heros) | mortality at 12 ppm (Myzus persicae [2]) | percent control (mortality, anti-feedant effect or growth inhibition) at 200 ppm (Chilo suppressalis) | percent control (mortality, anti-feedant effect or growth inhibition) at 200 ppm (Spodoptera littoralis)
